Measured values from US20230295115A1, “SUBSTITUTED ISOQUINOLINYLMETHYL AMIDES, ANALOGUES THEREOF, AND METHODS USING SAME” (priority 2020, published 2023).

tested on: HBV rcDNA; assay: HepDE19 assay with bDNA quantitation of HBV rcDNA; format: cell-based, hepatitis B virus (HBV); settings: HepDE19 cells, 7 day incubation, rcDNA measured by Quantigene 2.0 bDNA assay, top concentration 25 μM; read-out: DE-19bDNA EC50
Procedure, shortened: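 HepDE19 cells were switched to tetracycline-free medium and exposed to compound (0.5% DMSO final) for 7 days at 37° C. rcDNA was then quantified by bDNA with an HBV-specific probe set. In parallel, viability was read as ATP content (CellTiter-Glo) after 4 days on replicate plates.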

How did the EC50 turn out when `COc1ncc(C(C)N(C)C(=O)c2cc3cc(F)c(F)cc3[nH]2)c2cc(F)c(F)cc12` (single isomer, unassigned) [Compound 169, N-(1-(6,7-Difluoro-1-methoxyisoquinolin-4-yl)ethyl)-5,6-difluoro-N-methyl-1H-indole-2-carboxamide] was run?
The EC50 was 0.13 µM.

How did the EC50 turn out when `COc1ncc(C(C)N(C)C(=O)c2cc3cc(F)c(F)cc3[nH]2)c2cc(F)c(F)cc12` (single isomer, unassigned) [Compound 170, N-(1-(6,7-Difluoro-1-methoxyisoquinolin-4-yl)ethyl)-5,6-difluoro-N-methyl-1H-indole-2-carboxamide] was run?
The EC50 was 5.04 µM.

How did the EC50 turn out when `CC(c1cn(C)c(=O)c2cc(F)c(F)cc12)N(C)C(=O)c1cc2c(F)cccn2c1` (single isomer, unassigned) [Compound 171, N-(1-(6,7-difluoro-2-methyl-1-oxo-1,2-dihydroisoquinolin-4-yl)ethyl)-8-fluoro-N-methylindolizine-2-carboxamide] was run?
Its EC50 is 16.4 µM.

With `CC(c1cn(C)c(=O)c2cc(F)c(F)cc12)N(C)C(=O)c1cc2c(F)cccn2c1` (single isomer, unassigned) [Compound 172, N-(1-(6,7-difluoro-2-methyl-1-oxo-1,2-dihydroisoquinolin-4-yl)ethyl)-8-fluoro-N-methylindolizine-2-carboxamide] as the molecule, how does the EC50 read?
Its EC50 is 0.09 µM.

How did the EC50 turn out when `CC(c1cn(C)c(=O)c2cc(F)c(F)cc12)N(C)C(=O)c1cc2cc(F)c(F)cc2[nH]1` (single isomer, unassigned) [Compound 173, N-(1-(6,7-difluoro-2-methyl-1-oxo-1,2-dihydroisoquinolin-4-yl)ethyl)-5,6-difluoro-N-methyl-1H-indole-2-carboxamide] was run?
The EC50 was 2.12 µM.

For `CC(c1cn(C)c(=O)c2cc(F)c(F)cc12)N(C)C(=O)c1cc2cc(F)c(F)cc2[nH]1` (single isomer, unassigned) [Compound 174, N-(1-(6,7-difluoro-2-methyl-1-oxo-1,2-dihydroisoquinolin-4-yl)ethyl)-5,6-difluoro-N-methyl-1H-indole-2-carboxamide], which EC50 is on record?
The EC50 was 0.05 µM.

`COc1ncc(C(C)N(C)C(=O)c2ccc(C(F)(F)F)c(F)c2)c2cc(F)c(F)cc12` (single isomer, unassigned) [Compound 175, N-(1-(6,7-Difluoro-1-methoxyisoquinolin-4-yl)ethyl)-3-fluoro-N-methyl-4-(trifluoromethyl)benzamide] was tested. Which EC50 did it give?
The EC50 was 24.3 µM.

Which EC50 does the source give for `COc1ncc(C(C)N(C)C(=O)c2ccc(C(F)(F)F)c(F)c2)c2cc(F)c(F)cc12` (single isomer, unassigned) [Compound 176, N-(1-(6,7-Difluoro-1-methoxyisoquinolin-4-yl)ethyl)-3-fluoro-N-methyl-4-(trifluoromethyl)benzamide] here?
Its EC50 is 0.56 µM.

For `COc1ncc(C(C)N(C)C(=O)c2ccc(Br)c(F)c2)c2cc(F)c(F)cc12` (single isomer, unassigned) [Compound 177, 4-Bromo-N-(1-(6,7-difluoro-1-methoxyisoquinolin-4-yl)ethyl)-3-fluoro-N-methylbenzamide], which EC50 is on record?
The EC50 was 20.2 µM.

Which EC50 does the source give for `COc1ncc(C(C)N(C)C(=O)c2ccc(Br)c(F)c2)c2cc(F)c(F)cc12` (single isomer, unassigned) [Compound 178, 4-Bromo-N-(1-(6,7-difluoro-1-methoxyisoquinolin-4-yl)ethyl)-3-fluoro-N-methylbenzamide] here?
Its EC50 is 0.2 µM.

For `COc1ncc(C(C)N(C)C(=O)c2cc3c(F)cccn3c2)c2cc(F)c(F)cc12` (single isomer, unassigned) [Compound 179, N-(1-(6,7-difluoro-1-methoxyisoquinolin-4-yl)ethyl)-8-fluoro-N-methylindolizine-2-carboxamide], which EC50 is on record?
Its EC50 is 9.38 µM.

How did the EC50 turn out when `COc1ncc(C(C)N(C)C(=O)c2cc3c(F)cccn3c2)c2cc(F)c(F)cc12` (single isomer, unassigned) [Compound 180, N-(1-(6,7-difluoro-1-methoxyisoquinolin-4-yl)ethyl)-8-fluoro-N-methylindolizine-2-carboxamide] was run?
The EC50 was 0.24 µM.

For `COc1ncc(C(C)N(C)C(=O)[C@@H]2Cc3ccccc3N2)c2cc(F)c(F)cc12` (single isomer, unassigned) [Compound 181], which EC50 is on record?
Its EC50 is 0.29 µM.

`COc1ncc(C(C)N(C)C(=O)[C@@H]2Cc3ccccc3N2)c2cc(F)c(F)cc12` (single isomer, unassigned) [Compound 182] was tested. Which EC50 did it give?
Its EC50 is 24.7 µM.

How did the EC50 turn out when `CC(c1c[nH]c(=O)c2cc(F)c(F)cc12)N(C)C(=O)C1Cc2cc(F)ccc2N1` (centres unmarked) [Compound 61, N-(1-(6,7-Difluoro-1-oxo-1,2-dihydroisoquinolin-4-yl)ethyl)-5-fluoro-N-methylindoline-2-carboxamide] was run?
The EC50 was 6.7 µM.

Which EC50 does the source give for `CC(c1c[nH]c(=O)c2cc(F)c(F)cc12)N(C)C(=O)C1Cc2cc(F)ccc2N1` (centres unmarked) [Compound 62, N-(1-(6,7-Difluoro-1-oxo-1,2-dihydroisoquinolin-4-yl)ethyl)-5-fluoro-N-methylindoline-2-carboxamide] here?
Its EC50 is 0.19 µM.

With `CC(c1c[nH]c(=O)c2cc(F)c(F)cc12)N(C)C(=O)C1Cc2cc(F)ccc2N1` (centres unmarked) [Compound 63, N-(1-(6,7-Difluoro-1-oxo-1,2-dihydroisoquinolin-4-yl)ethyl)-5-fluoro-N-methylindoline-2-carboxamide] as the molecule, how does the EC50 read?
The EC50 was 5.2 µM.

How did the EC50 turn out when `CC(c1c[nH]c(=O)c2cc(F)c(F)cc12)N(C)C(=O)C1Cc2cc(F)ccc2N1` (centres unmarked) [Compound 64, N-(1-(6,7-Difluoro-1-oxo-1,2-dihydroisoquinolin-4-yl)ethyl)-5-fluoro-N-methylindoline-2-carboxamide] was run?
The EC50 was 0.02 µM.

How did the EC50 turn out when `CC(c1c[nH]c(=O)c2c(F)c(F)ccc12)N(C)C(=O)C1Cc2c(F)cc(F)cc2N1` (centres unmarked) [Compound 65, N-(1-(7,8-Difluoro-1-oxo-1,2-dihydroisoquinolin-4-yl)ethyl)-4,6-difluoro-N-methylindoline-2-carboxamide] was run?
Its EC50 is 11 µM.

`CC(c1c[nH]c(=O)c2c(F)c(F)ccc12)N(C)C(=O)C1Cc2c(F)cc(F)cc2N1` (centres unmarked) [Compound 66, N-(1-(7,8-Difluoro-1-oxo-1,2-dihydroisoquinolin-4-yl)ethyl)-4,6-difluoro-N-methylindoline-2-carboxamide] was tested. Which EC50 did it give?
Its EC50 is 0.21 µM.

`CC(c1c[nH]c(=O)c2c(F)c(F)ccc12)N(C)C(=O)C1Cc2c(F)cc(F)cc2N1` (centres unmarked) [Compound 67, N-(1-(7,8-Difluoro-1-oxo-1,2-dihydroisoquinolin-4-yl)ethyl)-4,6-difluoro-N-methylindoline-2-carboxamide] was tested. Which EC50 did it give?
Its EC50 is 3.1 µM.

`CC(c1c[nH]c(=O)c2c(F)c(F)ccc12)N(C)C(=O)C1Cc2c(F)cc(F)cc2N1` (centres unmarked) [Compound 68, N-(1-(7,8-Difluoro-1-oxo-1,2-dihydroisoquinolin-4-yl)ethyl)-4,6-difluoro-N-methylindoline-2-carboxamide] was tested. Which EC50 did it give?
The EC50 was 0.2 µM.

How did the EC50 turn out when `CC(c1c[nH]c(=O)c2c(F)c(F)ccc12)N(C)C(=O)C1Cc2cc(F)ccc2N1` (centres unmarked) [Compound 73, N-(1-(7,8-Difluoro-1-oxo-1,2-dihydroisoquinolin-4-yl)ethyl)-5-fluoro-N-methylindoline-2-carboxamide] was run?
The EC50 was 10 µM.

How did the EC50 turn out when `CC(c1c[nH]c(=O)c2c(F)c(F)ccc12)N(C)C(=O)C1Cc2cc(F)ccc2N1` (centres unmarked) [Compound 74, N-(1-(7,8-Difluoro-1-oxo-1,2-dihydroisoquinolin-4-yl)ethyl)-5-fluoro-N-methylindoline-2-carboxamide] was run?
Its EC50 is 0.26 µM.

For `CC(c1c[nH]c(=O)c2c(F)c(F)ccc12)N(C)C(=O)C1Cc2cc(F)ccc2N1` (centres unmarked) [Compound 75, N-(1-(7,8-Difluoro-1-oxo-1,2-dihydroisoquinolin-4-yl)ethyl)-5-fluoro-N-methylindoline-2-carboxamide], which EC50 is on record?
The EC50 was 0.83 µM.

With `CC(c1c[nH]c(=O)c2c(F)c(F)ccc12)N(C)C(=O)C1Cc2cc(F)ccc2N1` (centres unmarked) [Compound 76, N-(1-(7,8-Difluoro-1-oxo-1,2-dihydroisoquinolin-4-yl)ethyl)-5-fluoro-N-methylindoline-2-carboxamide] as the molecule, how does the EC50 read?
The EC50 was 4.4 µM.

With `CC(c1c[nH]c(=O)c2cc(F)c(F)cc12)N(C)C(=O)C1Cc2c(F)cc(F)cc2N1` (centres unmarked) [Compound 98, N-(1-(6,7-Difluoro-1-oxo-1,2-dihydroisoquinolin-4-yl)ethyl)-4,6-difluoro-N-methylindoline-2-carboxamide] as the molecule, how does the EC50 read?
Its EC50 is 5.9 µM.

Which EC50 does the source give for `CC(c1c[nH]c(=O)c2cc(F)c(F)cc12)N(C)C(=O)C1Cc2c(F)cc(F)cc2N1` (centres unmarked) [Compound 99, N-(1-(6,7-Difluoro-1-oxo-1,2-dihydroisoquinolin-4-yl)ethyl)-4,6-difluoro-N-methylindoline-2-carboxamide] here?
Its EC50 is 0.07 µM.

Which EC50 does the source give for `CC(c1c[nH]c(=O)c2cc(F)c(F)cc12)N(C)C(=O)C1Cc2c(F)cc(F)cc2N1` (centres unmarked) [Compound 100, N-(1-(6,7-Difluoro-1-oxo-1,2-dihydroisoquinolin-4-yl)ethyl)-4,6-difluoro-N-methylindoline-2-carboxamide] here?
Its EC50 is 0.8 µM.

`CC(c1c[nH]c(=O)c2cc(F)c(F)cc12)N(C)C(=O)C1Cc2c(F)cc(F)cc2N1` (centres unmarked) [Compound 101, N-(1-(6,7-Difluoro-1-oxo-1,2-dihydroisoquinolin-4-yl)ethyl)-4,6-difluoro-N-methylindoline-2-carboxamide] was tested. Which EC50 did it give?
Its EC50 is 0.03 µM.

same assay, conditions: Hepatitis B virus, HepDE19, 168 h, read-out: DE-19bDNA EC50 (μM), HepDE19 cells, 7 day incubation, rcDNA measured by Quantigene 2.0 bDNA assay, top concentration 25 μM

How did the EC50 turn out when `C[C@H](c1c[nH]c(=O)c2cc(F)c(F)cc12)N(C)C(=O)c1cc2c([nH]1)CCCC2` [Compound 34, (R)-N-(1-(6,7-Difluoro-1-oxo-1,2-dihydroisoquinolin-4-yl)ethyl)-N-methyl-4,5,6,7-tetrahydro-1H-indole-2-carboxamide] was run?
The EC50 was 0.05 µM.

Which EC50 does the source give for `C[C@H](c1c[nH]c(=O)c2c(F)c(F)ccc12)N(C)C(=O)c1cccc(=O)[nH]1` [Compound 87, (R)-N-(1-(7,8-Difluoro-1-oxo-1,2-dihydroisoquinolin-4-yl)ethyl)-N-methyl-6-oxo-1,6-dihydropyridine-2-carboxamide] here?
Its EC50 is 18 µM.
